In patent US9302999B2, “Substituted triazoles as herbicides” (E. I. DU PONT DE NEMOURS AND COMPANY, priority 2012, dated 2016):

Columns and labels:
Assay type in all cases: in vivo
[1] = system: pigweed, palmer (palmer pigweed, Amaranthus palmeri); assay: Test F pre-/postemergence: pigweed, palmer
In short: (§1)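 Seeds were sown in silt loam soil and sprayed preemergence with test chemical in a non-phytotoxic solvent mixture containing surfactant; postemergence treatments went onto plants 2 to 18 cm tall (1- to 4-leaf stage) grown in peat moss/vermiculite medium. After 14 to 21 days in a greenhouse, injury was rated visually against controls, 0 (no effect) to 100 (complete control).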

[2] = system: beggarticks (hairy beggarticks, Bidens pilosa); assay: Test F pre-/postemergence: beggarticks
In short: as §1

[3] = system: surinam grass (Brachiaria decumbens); assay: Test F pre-/postemergence: surinam grass; conditions: Preemergence
Excerpt: (§2) Seeds of plant species selected from corn (Zea mays), soybean (Glycine max), velvetleaf (Abutilon theophrasti), lambsquarters (Chenopodium album), poinsettia, wild (wild poinsettia, Euphorbia heterophylla), pigweed, palmer (palmer pigweed, Amaranthus palmeri), waterhemp (common waterhemp, Amaranthus rudis), surinam grass (Brachiaria decumbens), crabgrass, Brazil (Brazilian crabgrass, Digitaria horizontalis), panicum, fall (fall panicum Panicum dichotomiflorum), crabgrass, large (large crabgrass, Digitaria sanguinalis), foxtail, giant (giant foxtail, Setaria faberii), foxtail, green (green foxtail Setaria viridis), goosegrass (Eleusine indica), ragweed (common ragweed, Ambrosia elatior), barnyardgrass (Echinochloa crus-galli), sandbur (southern sandbur, Cenchrus echinatus), arrowleaf sida (Sida rhombifolia), ryegrass, Italian (Italian ryegrass, Lolium multiflorum), dayflower, VA (Virginia (VA) dayflower, Commelina virginica), field bindweed (Convolvulus arvensis), cocklebur (common cocklebur, Xanthium strumarium), morningglory (Ipomoea coccinea), nightshade (eastern black nightshade, Solanum ptycanthum), kochia (Kochia scoparia), nutsedge, yellow (yellow nutsedge, Cyperus esculentus), johnsongrass (Sorghum halepense), smartweed (ladysthumb smartweed, Polygonum persicaria), and beggarticks (hairy beggarticks, Bidens pilosa), were planted into a silt loam soil and treated preemergence with test chemicals formulated in a non-phytotoxic solvent mixture which included a surfactant. At the same time, plants selected from these crop and weed species and also pigweed (Amaranthus retroflexus), waterhemp_RES1 (ALS/Triazine resistant common waterhemp, Amaranthus rudis) and waterhemp_RES2 (ALS/HPPD resistant common waterhemp, Amaranthus rudis) were planted in pots containing a planting medium comprising spaghnum peat moss, vermiculite, wetting agent and starter nutrients treated with postemergence applications of some of the test chemicals formulated in the same manner. Plants ranged in height from 2 to 18 cm for postemergence treatments (1- to 4-leaf stage).
(§3) Treated plants and controls were maintained in a greenhouse for 14 to 21 days, after which time all species were compared to controls and visually evaluated. Plant response ratings, summarized in Table E, are based on a scale of 0 to 100 where 0 is no effect and 100 is complete control. A dash (-) response means no test result.

[4] = system: corn (Zea mays); assay: Test F pre-/postemergence: corn
Excerpt: as §2, §3

[5] = system: goosegrass (Eleusine indica); assay: Test F pre-/postemergence: goosegrass; conditions: Preemergence
Excerpt: as §2, §3

[6] = system: panicum, fall (fall panicum Panicum dichotomiflorum); assay: Test F pre-/postemergence: panicum, fall
In short: as §1

[7] = Preemergence, 16 g ai/ha, scale 0 to 100, 0 no effect, 100 complete control
[8] = Preemergence, 31 g ai/ha, scale 0 to 100, 0 no effect, 100 complete control
[9] = Preemergence, 125 g ai/ha, scale 0 to 100
[10] = Preemergence, 250 g ai/ha, scale 0 to 100
[11] = Preemergence, 62 g ai/ha, scale 0 to 100
[12] = 16 g ai/ha, scale 0 to 100, 0 no effect, 100 complete control
[13] = 31 g ai/ha, scale 0 to 100, 0 no effect, 100 complete control
[14] = Postemergence, 250 g ai/ha, scale 0 to 100
[15] = Postemergence, 16 g ai/ha, scale 0 to 100
[16] = Postemergence, 31 g ai/ha, scale 0 to 100
[17] = Postemergence, 62 g ai/ha, scale 0 to 100
[18] = Postemergence, 125 g ai/ha, scale 0 to 100

Cc1nn(-c2ccc(F)cc2F)nc1Oc1ccnc(C(F)(F)F)c1 [Compound 146]
Plant response rating, Pigweed, Palmer [1, 7]: 85 | Plant response rating, Pigweed, Palmer [1, 8]: 100 | Plant response rating, Pigweed, Palmer [1, 9]: 100 | Plant response rating, Pigweed, Palmer [1, 10]: 100 | Plant response rating, Beggarticks [2, 7]: 0 | Plant response rating, Beggarticks [2, 8]: 0 | Plant response rating, Beggarticks [2, 11]: 0 | Plant response rating, Beggarticks [2, 9]: 0 | Plant response rating, Beggarticks [2, 10]: 0 | Plant response rating, Surinam Grass [3, 12]: 0 | Plant response rating, Surinam Grass [3, 13]: 0 | Plant response rating, Surinam Grass ([3]; 125 g ai/ha, scale 0 to 100): 20 | Plant response rating, Surinam Grass ([3]; 250 g ai/ha, scale 0 to 100): 35 | Plant response rating, Corn [4, 7]: 0 | Plant response rating, Corn [4, 8]: 0 | Plant response rating, Corn [4, 11]: 0 | Plant response rating, Corn [4, 9]: 0 | Plant response rating, Corn [4, 10]: 0 | Plant response rating, Goosegrass [5, 12]: 0 | Plant response rating, Goosegrass [5, 13]: 40 | Plant response rating, Goosegrass ([5]; 62 g ai/ha, scale 0 to 100): 70 | Plant response rating, Goosegrass ([5]; 125 g ai/ha, scale 0 to 100): 75 | Plant response rating, Goosegrass ([5]; 250 g ai/ha, scale 0 to 100): 98 | Plant response rating, Panicum, Fall [6, 7]: 0 | Plant response rating, Panicum, Fall [6, 8]: 5 | Plant response rating, Panicum, Fall [6, 9]: 100 | Plant response rating, Panicum, Fall [6, 10]: 100

CCc1nn(-c2ccc(F)cc2)nc1Cc1ccnc(C(F)(F)F)c1 [Compound 154]
Plant response rating, Pigweed, Palmer [1, 7]: 100 | Plant response rating, Pigweed, Palmer [1, 8]: 100 | Plant response rating, Pigweed, Palmer [1, 9]: 100 | Plant response rating, Pigweed, Palmer [1, 10]: 100 | Plant response rating, Beggarticks [2, 7]: 0 | Plant response rating, Beggarticks [2, 8]: 0 | Plant response rating, Beggarticks [2, 11]: 0 | Plant response rating, Beggarticks [2, 9]: 0 | Plant response rating, Beggarticks [2, 10]: 15 | Plant response rating, Surinam Grass [3, 12]: 0 | Plant response rating, Surinam Grass [3, 13]: 10 | Plant response rating, Surinam Grass ([3]; 125 g ai/ha, scale 0 to 100): 70 | Plant response rating, Surinam Grass ([3]; 250 g ai/ha, scale 0 to 100): 90 | Plant response rating, Corn [4, 7]: 0 | Plant response rating, Corn [4, 8]: 0 | Plant response rating, Corn [4, 11]: 0 | Plant response rating, Corn [4, 9]: 5 | Plant response rating, Corn [4, 10]: 5 | Plant response rating, Goosegrass [5, 12]: 10 | Plant response rating, Goosegrass [5, 13]: 95 | Plant response rating, Goosegrass ([5]; 62 g ai/ha, scale 0 to 100): 95 | Plant response rating, Goosegrass ([5]; 125 g ai/ha, scale 0 to 100): 100 | Plant response rating, Goosegrass ([5]; 250 g ai/ha, scale 0 to 100): 100 | Plant response rating, Panicum, Fall [6, 7]: 15 | Plant response rating, Panicum, Fall [6, 8]: 90 | Plant response rating, Panicum, Fall [6, 9]: 100 | Plant response rating, Panicum, Fall [6, 10]: 100

CCc1nn(-c2ccc(C(F)(F)F)cc2)nc1Oc1ccnc(C(F)(F)F)c1 [Compound 169]
Plant response rating, Pigweed, Palmer [1, 14]: 100 | Plant response rating, Pigweed, Palmer [1, 15]: 50 | Plant response rating, Pigweed, Palmer [1, 16]: 50 | Plant response rating, Pigweed, Palmer [1, 17]: 90 | Plant response rating, Pigweed, Palmer [1, 18]: 100 | Plant response rating, Pigweed, Palmer [1, 7]: 35 | Plant response rating, Pigweed, Palmer [1, 8]: 100 | Plant response rating, Pigweed, Palmer [1, 9]: 100 | Plant response rating, Pigweed, Palmer [1, 10]: 100 | Plant response rating, Beggarticks [2, 14]: 40 | Plant response rating, Beggarticks [2, 15]: 25 | Plant response rating, Beggarticks [2, 16]: 25 | Plant response rating, Beggarticks [2, 17]: 25 | Plant response rating, Beggarticks [2, 18]: 30 | Plant response rating, Beggarticks [2, 7]: 0 | Plant response rating, Beggarticks [2, 8]: 0 | Plant response rating, Beggarticks [2, 11]: 0 | Plant response rating, Beggarticks [2, 9]: 5 | Plant response rating, Beggarticks [2, 10]: 5 | Plant response rating, Surinam Grass [3, 12]: 0 | Plant response rating, Surinam Grass [3, 13]: 65 | Plant response rating, Surinam Grass ([3]; 125 g ai/ha, scale 0 to 100): 75 | Plant response rating, Surinam Grass ([3]; 250 g ai/ha, scale 0 to 100): 100 | Plant response rating, Corn [4, 14]: 10 | Plant response rating, Corn [4, 15]: 5 | Plant response rating, Corn [4, 16]: 5 | Plant response rating, Corn [4, 17]: 10 | Plant response rating, Corn [4, 18]: 10 | Plant response rating, Corn [4, 7]: 0 | Plant response rating, Corn [4, 8]: 0 | Plant response rating, Corn [4, 11]: 0 | Plant response rating, Corn [4, 9]: 0 | Plant response rating, Corn [4, 10]: 0 | Plant response rating, Goosegrass [5, 12]: 50 | Plant response rating, Goosegrass [5, 13]: 95 | Plant response rating, Goosegrass ([5]; 62 g ai/ha, scale 0 to 100): 100 | Plant response rating, Goosegrass ([5]; 125 g ai/ha, scale 0 to 100): 100 | Plant response rating, Goosegrass ([5]; 250 g ai/ha, scale 0 to 100): 100 | Plant response rating, Panicum, Fall [6, 14]: 30 | Plant response rating, Panicum, Fall [6, 15]: 10 | Plant response rating, Panicum, Fall [6, 16]: 15 | Plant response rating, Panicum, Fall [6, 17]: 20 | Plant response rating, Panicum, Fall [6, 18]: 25 | Plant response rating, Panicum, Fall [6, 7]: 65 | Plant response rating, Panicum, Fall [6, 8]: 100 | Plant response rating, Panicum, Fall [6, 9]: 100 | Plant response rating, Panicum, Fall [6, 10]: 100

CCc1nn(-c2ccc(F)c(F)c2)nc1Oc1ccnc(C(F)(F)F)c1 [Compound 171]
Plant response rating, Pigweed, Palmer [1, 7]: 0 | Plant response rating, Pigweed, Palmer [1, 8]: 0 | Plant response rating, Pigweed, Palmer [1, 9]: 100 | Plant response rating, Pigweed, Palmer [1, 10]: 100 | Plant response rating, Beggarticks [2, 7]: 0 | Plant response rating, Beggarticks [2, 8]: 0 | Plant response rating, Beggarticks [2, 11]: 0 | Plant response rating, Beggarticks [2, 9]: 0 | Plant response rating, Beggarticks [2, 10]: 0 | Plant response rating, Surinam Grass [3, 12]: 0 | Plant response rating, Surinam Grass [3, 13]: 0 | Plant response rating, Surinam Grass ([3]; 125 g ai/ha, scale 0 to 100): 10 | Plant response rating, Surinam Grass ([3]; 250 g ai/ha, scale 0 to 100): 30 | Plant response rating, Corn [4, 7]: 0 | Plant response rating, Corn [4, 8]: 0 | Plant response rating, Corn [4, 11]: 0 | Plant response rating, Corn [4, 9]: 0 | Plant response rating, Corn [4, 10]: 5 | Plant response rating, Goosegrass [5, 12]: 70 | Plant response rating, Goosegrass [5, 13]: 80 | Plant response rating, Goosegrass ([5]; 62 g ai/ha, scale 0 to 100): 100 | Plant response rating, Goosegrass ([5]; 125 g ai/ha, scale 0 to 100): 100 | Plant response rating, Goosegrass ([5]; 250 g ai/ha, scale 0 to 100): 100 | Plant response rating, Panicum, Fall [6, 7]: 0 | Plant response rating, Panicum, Fall [6, 8]: 65 | Plant response rating, Panicum, Fall [6, 9]: 100 | Plant response rating, Panicum, Fall [6, 10]: 100

CCCc1nn(-c2ccc(F)c(F)c2)nc1Oc1ccnc(C(F)(F)F)c1 [Compound 172]
Plant response rating, Pigweed, Palmer [1, 14]: 100 | Plant response rating, Pigweed, Palmer [1, 16]: 100 | Plant response rating, Pigweed, Palmer [1, 18]: 100 | Plant response rating, Pigweed, Palmer [1, 8]: 100 | Plant response rating, Pigweed, Palmer [1, 9]: 100 | Plant response rating, Pigweed, Palmer [1, 10]: 100 | Plant response rating, Beggarticks [2, 14]: 60 | Plant response rating, Beggarticks [2, 16]: 40 | Plant response rating, Beggarticks [2, 18]: 50 | Plant response rating, Beggarticks [2, 8]: 15 | Plant response rating, Beggarticks [2, 9]: 25 | Plant response rating, Beggarticks [2, 10]: 25 | Plant response rating, Surinam Grass [3, 13]: 20 | Plant response rating, Surinam Grass ([3]; 125 g ai/ha, scale 0 to 100): 35 | Plant response rating, Surinam Grass ([3]; 250 g ai/ha, scale 0 to 100): 98 | Plant response rating, Corn [4, 14]: 30 | Plant response rating, Corn [4, 16]: 15 | Plant response rating, Corn [4, 18]: 20 | Plant response rating, Corn [4, 8]: 0 | Plant response rating, Corn [4, 9]: 15 | Plant response rating, Corn [4, 10]: 15 | Plant response rating, Goosegrass [5, 13]: 98 | Plant response rating, Goosegrass ([5]; 125 g ai/ha, scale 0 to 100): 100 | Plant response rating, Goosegrass ([5]; 250 g ai/ha, scale 0 to 100): 100 | Plant response rating, Panicum, Fall [6, 14]: 50 | Plant response rating, Panicum, Fall [6, 16]: 20 | Plant response rating, Panicum, Fall [6, 18]: 50 | Plant response rating, Panicum, Fall [6, 8]: 75 | Plant response rating, Panicum, Fall [6, 9]: 100 | Plant response rating, Panicum, Fall [6, 10]: 100
